# Measured values as given in patent publication US6379670B1, “Methods for treatment of multiple sclerosis using peptide analogs of human myelin basic protein” (Neurocrine Biosciences, Inc., priority 1994, dated 2002).
# Non-standard residues stand in square brackets, D forms with d. No end group written: not given here.
# B1: IFN-γ: cytokine administered in a pilot study in MS patients (protein, UniProt P01579 24-161, looked up)
# Interferon gamma: QDPYVKEAENLKKYFNAGHSDVADNGTLFLGILKNWKEESDRKIMQSQIVSFYFKLFKNFKDDQSIQKSVETIKEDMNVKFFNSNKKKRDDFEKLTNYSVTDLNVQRKAIHELIQVMAELSPAAKTGKRKRSQMLFRG
# Experiments:
# [1] = tested on: Dr4 Dw4 restricted human T cell clone MS-1; assay: Human T cell proliferation, Dr4 Dw4 restricted clone MS-1; format: cell-based; conditions: FIG. 20
# Protocol: (§1) Human T cells reactive to MBP (83-99) may alternatively be used to measure the ability of the peptide analog to inhibit proliferation of T cells induced by native MBP (83-99) peptide. MBP-specific T cells may be obtained as previously described by Martin et al., J. Immunol. 148:1359-1366, 1992. Briefly, T cell lines are established by culture of human T cells with irradiated, DR-matched peripheral blood cells in MEM supplemented with 2 mM L-glutamine, 50 μg/ml gentamicin, penicillin and streptomycin, 100 U/ml rIL-2, and 10% human AB negative serum. Proliferation of these T cell lines is stimulated by culturing a clone with varying concentration (1.1-30 μM) of native […] peptide, 50 μM of the peptide analog or SWM peptide, in the presence of irradiated, DR matched peripheral blood cells, following incubation for approximately 60 hours, the cells are pulsed with ^3H-thymidine for 12 hours and harvested. The amount of incorporated ^3H-thymidine is measured.
# The ability of the peptide analogs NBI-5719, 5748, 5765, 5788 and 5789 (SEQ ID NOs: 4-8 respectively) to affect human T cell proliferation was assessed. […] The amount of tritiated thymidine incorporated was measured, and the data represented as the mean plus or minus the standard error of the mean of replicate samples.
# [2] = tested on: EAE in SJL/J mice; assay: Inhibition of chronic relapsing EAE in SJL/J mice; format: in vivo, mouse; conditions: 20 mg/kg intraperitoneally weekly for 4 weeks
# Protocol: The SJL/J (H-2^5) mouse develops a chronic relapsing form of EAE in response to immunization with MBP(83-99) peptide in the presence of pertussis vaccine. The ability of the peptide analogs NBI-5719 (SEQ ID NO:4) and NBI-5765 (SEQ ID NO:6) to inhibit the disease was evaluated (see FIG. 12).
# Groups of 10 animals were injected intraperitoneally weekly for 4 weeks with 20 mg/kg of either a control peptide or the peptide analog. The animals were then monitored for disease over the next 2-3 months. […] Beginning around day 70, a relapse occurred reaching a mean clinical score of about 1. […] This is particularly striking since the animals had not been exposed to the APL for approximately one month.
# [3] = tested on: Dr2b restricted human T cell clones reactive to MBP; assay: Human T cell proliferation, Dr2b restricted clones; format: cell-based; conditions: Dr2b restricted clone 5F6, 50 μM, FIG. 19
# Protocol: as §1
# The ability of the peptide analogs NBI-5719, 5748, 5765, 5788 and 5789 (SEQ ID NOs: 4-8 respectively) to affect human T cell proliferation was assessed. A constant amount of peptide analog or the control peptide SWM (50 μM) was cultured with varying concentrations of native MBP(83-99) peptide (1.1-30 μM) in the presence of irradiated, DR matched peripheral blood cells and T cell clones derived from various MS patients. Human T cells (1×10^6) were cultured with DR matched, irradiated peripheral blood cells (PBL, 5×10^6) in medium containing IMDM supplemented with 3 μM MBP83-99, 2 mM L-glutamine, 50 μg/ml gentamicin penicillin/streptomycin, 100 U/ml r1L-2 and 10% human AB-negative serum. Cells were cultured for approximately 60 hours, pulsed with tritiated thymidine for 12 hours, and harvested. The amount of tritiated thymidine incorporated was measured, and the data represented as the mean plus or minus the standard error of the mean of replicate samples.
# The ability of the peptide analog to inhibit the proliferative response of MBP-reactive T cells isolated from Dr2b (DrB1* 1501) individuals was determined. A constant amount of NBI-5788 (50 μM) was cultured with varying concentrations of native peptide (1.1-30 μM) in the presence of irradiated, DR matched peripheral blood cells and T cell clones derived from various MS patients.
# [4] = tested on: EAE in Lewis rats; assay: Treatment of MBP(83-99)-induced EAE in Lewis rats with peptide analogs (subcutaneous); format: in vivo, Lewis rat; conditions: 13.2 mg/kg subcutaneously on day 9, FIGS. 10 and 11
# Protocol: In this system, experimental allergic encephalomyelitis (EAE) was induced in twelve female Lewis rats by injection of MBP(83-99) peptide in complete Freund's adjuvant (CFA) at the base of the tail. Nine days later, rats were divided into two groups of six animals and subcutaneously injected with 13.2 mg/kg of either peptide analog or a control peptide, sperm whale myoglobin (SWM) (110-121). Animals were monitored daily for disease symptoms and scored in a blinded fashion on a nonlinear ascending scale of 0-4 with increments denoting increasing paralysis. Each individual score was averaged with group cohorts to obtain the mean clinical score.
# [5] = tested on: Dr2b-restricted T cell clone 5F6; assay: Cytokine production (TNF-α, IFN-γ) by T cell clone 5F6, EIA; format: cell-based, human; conditions: even at concentrations of 50 μM (data not shown)
# Protocol: As discussed in detail below, the production of cytokines may also be assessed. In particular, TNF-α and IFN-γ production are especially interesting. These pro-inflammatory cytokines are thought to play a role in the pathogenesis of the disease. Briefly, T cell clone is incubated in the presence of stimulating MBP peptide and peptide analog or control peptide (SWM) or medium only. After a 24 hour incubation, the levels of TNF-α and IFN-γ in the supernatant are determined using commercially available EIA kits (Endogen, Cambridge, Mass.).
# The ability of the peptide analog ligand to influence cytokine production was next measured. The Dr2b-restricted T cell clone 5F6 was incubated in the presence of 3 μM MBP peptide with either 10 μM of NBI-5788 (SEQ ID NO:7) or SWM or medium only. As a control, cells were cultured in the presence of medium alone. After 24 hours, supernatants were removed and the levels of tumor necrosis factor alpha (TNF-α) and interferon-y (IFN-γ) determined using commercially available EIA kits.
# [6] = tested on: rat MHC class II I-A or I-E on splenic adherent cells; assay: MHC binding assay (competition with biotin-labeled MBP peptide, flow cytometry); parameters: species or system Lewis rat; conditions: at 100 μM
# Protocol: Binding of peptides to MHC molecules may be assayed on whole cells. Briefly, Lewis rat spleen cells are cultured for 3 hours to allow adherent cells to stick to polystyrene petri dishes. Non-adherent cells are removed. Adherent cells, which contain cells expressing MHC class II molecules, are collected by scraping the dishes. The binding of peptide analogs to cells is measured by a fluorescence assay. In this assay, splenic adherent cells are mixed with different concentrations of peptide analogs and incubated for 1 hour at 37° in a CO2 incubator. Following incubation, biotinlabeled MBP (87-99) is added to the culture wells. The cells are incubated for another hour and then washed three times in medium. […] Fluorescence intensity is calculated by subtracting the fluorescence value obtained from cells stained with phycoerythrin-streptavidin alone (control staining) from the fluorescence value obtained from biotin-labeled MBP native peptide plus phycoerythrin-streptavidin (experimental staining). […] Percent inhibition is calculated for each analog and expressed as IC50 values.
# The ability of MBP peptides and peptide analogs to bind MHC was measured. […] The binding of MBP (87-99) analogs was measured using a fluorescence assay. […] Percent inhibition was calculated for each analog and expressed as IC50 values.
# [7] = tested on: MS patients; conditions: human, in vivo; cited from earlier work
molecule,measurement,setting,value
"NBI-5765: peptide analog of MBP (83-99), SEQ ID NO:6, sequence in FIG. 8 ([dA]NPVVHAFANIVTPRTP)",inhibition of MBP-dependent proliferation of clone MS-1,[1],inhibited the MBP-dependent proliferation in a concentration dependent fashion
same,effect on first phase of EAE,[2]; FIG. 12,reduced the level of the disease in the first phase
same,effect on relapse of EAE,[2]; relapse around day 70,reduced the severity of the relapse
same,inhibition of MBP-dependent proliferation of clone 5F6,[3],inhibited the MBP-dependent proliferation in a concentration dependent fashion
same,effect on EAE disease severity versus control peptide,[4],significantly reduced the magnitude of the disease
same,stimulation of cytokine production over background by the analog itself,[5],None
"a83, A89, A91: analog with residue 83 altered to D-alanine, residue 89 to alanine, and residue 91 to alanine",inhibition of binding of biotin-labeled MBP peptide to MHC,[6],25%
B1,patients with a clinical exacerbation within one month after initiation of treatment,[7],7 of 18
